In US20210122780A1, “COMPOSITIONS FOR THE PREVENTION AND TREATMENT OF PARKINSON'S DISEASE” (Metselex, Inc., priority 2018, published 2021):

What was measured:
[1] = tested on: Primary rat hepatocytes; experiment: Cell viability and apoptosis assays, TGF-β1-exposed hepatocytes; assay type: cell-based; conditions: 100 μM, with or without 3 U/ml alkaline phosphatase, TGF-β1 24 h
Experimental: Cell culture and treatments. Primary rat hepatocytes were isolated from male rats (100-150 g) by collagenase perfusion. Briefly, rats were anesthetized with phenobarbital sodium (100 mg/kg body weight) injected into the peritoneal cavity. After administration of heparin (200 units/kg body weight) in the tail vein, the animals' abdomen was opened and the portal vein exposed and cannulated. The liver was then perfused at 37° C. in situ with a calcium-free Hanks' Balanced Salt Solution (HBSS) for ˜10 min, and then with 0.05% collagenase type IV in calcium-present HBSS for another 10 min. […] Cell viability was determined by trypan blue exclusion and was typically 80-85%. […]
Cell viability assays. […] Finally, absorbance was measured at 490 nm, with 690 nm as reference, using a Bio-Rad model 680-microplate reader (Bio-Rad Laboratories, Hercules, Calif., USA).
To assess cellular viability, the CellTiter-Fluor™ viability assay was used (Promega Corp., Madison, Wis., USA). Briefly, viable cells are measured using a fluorogenic, cell-permeant, peptide substrate (Gly-Phe-AFC), which is cleaved by the live-cell protease activity to generate a fluorescent signal proportional to the number of living cells. Cells were incubated with an equal volume of CellTiter-Fluor™ Reagent for 30 min at 37° C. and resulting fluorescence (380-400 nmEx/505 nmEm) measured using a GloMax+ Multi Detection System (Promega Corp.). […]

[2] = tested on: Alkaline phosphatase from bovine intestinal mucosa; experiment: Alkaline phosphatase activation of prodrugs (31P NMR); assay type: biochemical; conditions: in vitro, FIG. 5
Experimental: Alkaline phosphatase activation of prodrugs 3 and 19d. Alkaline phosphatase from bovine intestinal mucosa (Sigma-Aldrich, P5521-2KU) was dissolved in 2.0 mL of a 0.100 M sodium glycine buffer containing 1.0 mM ZnCl2 and 1.0 mM MgCl2. This stock solution was stored at 4° C. between uses.
Compound 19d (10.0 mg, 0.016 mmol) or compound 3 (8.7 mg, 0.016 mmol) were dissolved in 0.6 mL of a 0.100 M tris glycine buffer solution containing 1.0 mM ZnCl2 and 1.0 mM MgCl2. […] 50 μL of the previously prepared AP stock solution was further diluted by addition to 0.950 mL of a 0.100 M tris glycine buffer containing 1.0 mM ZnCl2 and 1.0 mM MgCl2. 10.0 μL of this diluted AP solution was added to the prodrug solution by syringe. A series of 42 inverse-gated decoupled ^31P NMR's were taken (24 scans each, approximately one minute acquisition time). Conversion (%) was determined from the relative integration of the starting material and product peaks, NMR time stamps were used to determine time. Each experiment was repeated three times.

CC(CCC(=O)OCOP(=O)(O)O)C1CCC2C3C(O)CC4CC(O)CCC4(C)C3CCC12C (centres unmarked) [Compound 19, ursodeoxycholic acid phosphonooxymethoxy ester] was tested, and the “anti-apoptotic potency in in vitro assays” value [1] was “highly active in these assays, but required activation by exogenous alkaline phosphatase” and the “rate of alkaline phosphatase catalyzed release of UDCA” value [2] was “faster than prodrug 3”.
